What was measured:
[1] = Cytotoxicity (MTT or CellTiter 96), HeLa; assay type: cell-based; conditions: human, HeLa cells; 24 hour incubation; mean ± SD, 3 replicates
Protocol: Following a 24 hour incubation period, cell viability was measured using either the MTT (Roche Applied Science, Indianapolis, IN) or CellTiter 96 proliferation (Promega, WI) assay.

[2] = test system: latent HIV-1 in J89GFP cells; assay: Latent HIV-1 reactivation in J89GFP cells (EGFP positive cells, flow cytometry); assay type: cell-based
Protocol: Three different cell lines of HIV-1 latency were used in this study. These included J89GFP, U1 and ACH-2 cells. The J89GFP cells were a kind gift from Dr. David Levy. The ACH-2 and U1 cells were obtained through the AIDS Research and Reference Reagent Program, Division of AIDS, NIAID, NIH: Dr. Thomas Folks contributor [19]–[21]. Reactivation of latent HIV-1 in the J89GFP cells was measured by quantifying the percentage of EGFP positive cells using a BD FACScan flow cytometer with BD FACSDiva software (BD Biosciences, CA), as described previously. Reactivation of latent HIV-1 in the ACH-2 and U 1 cells was assessed by quantitative analysis of initiated and elongated HIV-1 transcripts, as described previously. All 3 cell lines were maintained in RMPI 1640 medium supplemented with 10% FBS, 0.3 mg/mL L-glutamine, 100 U/mL penicillin, and 100 µg/mL streptomycin at 37°C in humidified air with 5% CO2.
To identify novel activators of latent HIV-1 expression, we screened 640 pure natural products from the TimTec Natural Compound Library at a concentration of 10 ng/mL for 24 hrs in a Jurkat cell (J89GFP) model of latency for their cytotoxicity and ability to reactivate HIV-1 expression. J89GFP cells contain a stably integrated, full-length HIV-1 provirus with an enhanced GFP (EGFP) reporter incorporated into the viral genome. The viral genome in these cells is transcriptionally silent. However, upon stimulation viral transcription is activated and viral expression can be measured by EGFP production. […].

HDAC2 = target: T1, HDAC2 (Homo sapiens, UniProt Q92769); assay: biochemical; conditions: recombinant purified enzyme; read-out: 57704 IC50, HDAC2
T1 construct: purchased BPS Bioscience (San Diego, CA)
Protocol: The lysine deacetylase activity of HDACs 1, 2, 3, and 8 was assessed using the Fluorogenic HDAC Assay (BPS Bioscience, San Diego, CA) according to the manufacturer's instructions. […] All assays were carried out under steady-state conditions and the assay read-out was optimized for linearity both as a function of time and enzyme concentration. The formation of the fluorescent product was measured using a SpectraMax M2 Plate Reader (Molecular Devices, CA). The excitation and emission wavelengths were 360 nm and 450 nm, respectively.

T1 sequence (Q92769 whole entry): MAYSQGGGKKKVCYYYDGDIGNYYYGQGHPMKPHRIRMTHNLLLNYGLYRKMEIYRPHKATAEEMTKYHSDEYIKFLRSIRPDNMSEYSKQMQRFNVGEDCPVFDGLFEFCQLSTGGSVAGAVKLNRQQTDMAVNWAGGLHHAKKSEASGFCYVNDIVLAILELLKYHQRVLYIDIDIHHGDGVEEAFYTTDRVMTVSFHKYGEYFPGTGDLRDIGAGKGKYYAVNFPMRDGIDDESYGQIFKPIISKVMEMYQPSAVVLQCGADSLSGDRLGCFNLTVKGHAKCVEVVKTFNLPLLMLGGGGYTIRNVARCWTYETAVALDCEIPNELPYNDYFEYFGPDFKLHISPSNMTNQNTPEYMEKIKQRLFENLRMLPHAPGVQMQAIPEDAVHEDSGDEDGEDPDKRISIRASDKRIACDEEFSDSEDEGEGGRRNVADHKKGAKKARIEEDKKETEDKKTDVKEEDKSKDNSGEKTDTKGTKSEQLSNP

For `COc1cc2c(cc1OC)-c1c(OC)c(OC)cc3ccnc(c13)C2=O` [Compound 57704, 1,2,9,10-tetramethoxy-7H-dibenzo[de,g]quinolin-7-one], which CC50 at 24 h [1] is on record?
Its CC50 at 24 h is 293 ± 56.4 µM.

What about the EC50 ([2]; Human immunodeficiency virus 1, read-out: EC50, reactivation of latent HIV-1 gene expression) of the same molecule?
The EC50 was 10.3 ± 1.2 µM.

And the “Latent HIV-1 reactivation activity in presence of PI3K inhibitor wortmannin” value ([2]; J89GFP, 20 nM wortmannin)?
The value was “significantly attenuated”.

And the “Latent HIV-1 reactivation activity in presence of p38 MAPK inhibitor SB203580” value ([2]; J89GFP, 50 nM SB203580)?
The value was “unaffected”.

And the “Latent HIV-1 reactivation activity in presence of Akt Inhibitor IV” value ([2]; J89GFP, 500 nM Akt Inhibitor IV)?
Its value is “significantly attenuated”.

And the “Latent HIV-1 reactivation activity in presence of PKC inhibitor Gö6983” value ([2]; J89GFP, 500 nM Go6983)?
Its value is “unaffected”.

What about the “Latent HIV-1 reactivation activity in presence of JNK inhibitor SP600125” value ([2]; J89GFP, 1 µM SP00125) of the same molecule?
The value was “unaffected”.

What about the “Latent HIV-1 reactivation activity in presence of NFAT/calcineurin inhibitor cyclosporin A” value ([2]; J89GFP, 1 µM cyclosporin A) of the same molecule?
Its value is “unaffected”.

What about the “Latent HIV-1 reactivation activity in presence of PI3K p110γ inhibitor AS-605240” value ([2]; J89GFP, 2 µM AS-605240) of the same molecule?
The value was “moderately enhanced”.

And the “Latent HIV-1 reactivation activity in presence of PI3K p110α specific inhibitor PI-103” value ([2]; J89GFP, 2 µM PI-103)?
Its value is “significantly attenuated”.

What about the “Latent HIV-1 reactivation activity in presence of PI3K p110β inhibitor TGX-221” value ([2]; J89GFP, 2 µM TGX-221) of the same molecule?
Its value is “moderately enhanced”.

What about the “Latent HIV-1 reactivation activity in presence of PI3K p110δ inhibitor IC87114” value ([2]; J89GFP, 5 µM IC87114) of the same molecule?
The value was “not reduced”.

And the “Latent HIV-1 reactivation activity in presence of pan PI3K inhibitor LY 294002” value ([2]; J89GFP, 15 µM LY294002)?
Its value is “significantly attenuated”.

What about the “Latent HIV-1 reactivation activity in presence of NF-κB inhibitor 6-amino-4-(4-phenoxyphenylethylamino) quinazoline” value ([2]; J89GFP, 20 µM NF-κB activation inhibitor) of the same molecule?
Its value is “significantly attenuated”.

What about the IC50 (HDAC2) of the same molecule?
Its IC50 is over 50 µM.

— PMC3906007, “Discovery of a Small Molecule Agonist of Phosphatidylinositol 3-Kinase p110α That Reactivates Latent HIV-1” (PLoS ONE, 2014)
